Measured values as given in ChEMBL document CHEMBL1201862, “PubChem BioAssay data set” (2004).
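1) Cells in 96-well plates. 2) Compound, 48 h, 5 concentrations. 3) Linear interpolation between surrounding doses. 4) Unreached endpoint = highest concentration. The concentration for 50% growth inhibition is given as GI50.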 Active and inactive are the calls of the source. No stated cut-off is given here; in the data, active = GI50 up to about 1.1 µM and inactive = higher.

Columns and labels:
Assay in all cases: NCI-60 cell line screen, 48 h
M14 = system: M14
786-0 = system: 786-0
SF-539 = system: SF-539
SF-295 = system: SF-295
UACC-257 = system: UACC-257
SK-MEL-28 = system: SK-MEL-28
SW-620 = system: SW-620
OVCAR-4 = system: OVCAR-4
CAKI-1 = system: CAKI-1
SK-MEL-2 = system: SK-MEL-2
HCC 2998 = system: HCC 2998
OVCAR-5 = system: OVCAR-5
SNB-19 = system: SNB-19
NCI-H226 = system: NCI-H226
CCRF-CEM = system: CCRF-CEM
OVCAR-8 = system: OVCAR-8
U-251 = system: U-251
SK-MEL-5 = system: SK-MEL-5
KM12 = system: KM12

Measured: GI50

CC(=O)C(CN(CC(C)C)CC(C)C)C(c1ccccc1)c1c(O)c2ccccc2oc1=O (stereo not drawn)
inactive: M14 > 100 µM | 786-0 > 100 µM | SF-539 > 100 µM | SF-295 > 100 µM | UACC-257 > 100 µM | SK-MEL-28 > 100 µM | SW-620 > 100 µM | OVCAR-4 > 100 µM | CAKI-1 > 100 µM | SK-MEL-2 > 100 µM | HCC 2998 > 100 µM | OVCAR-5 > 100 µM | SNB-19 > 100 µM | NCI-H226 > 100 µM | CCRF-CEM > 10 µM | OVCAR-8 > 100 µM

CC[P+]1(c2ccccc2)CCCCC1
inactive: M14 > 100 µM | 786-0 > 100 µM | SF-539 > 100 µM | SF-295 > 100 µM | UACC-257 > 100 µM | SK-MEL-28 > 100 µM | SW-620 > 100 µM | OVCAR-4 > 100 µM | U-251 > 100 µM | CAKI-1 > 100 µM | SK-MEL-2 > 100 µM | HCC 2998 > 100 µM | SK-MEL-5 > 100 µM | KM12 > 100 µM | OVCAR-5 > 100 µM | SNB-19 > 100 µM | NCI-H226 > 100 µM | CCRF-CEM > 100 µM | OVCAR-8 > 100 µM

Cc1cccc(NC2=NC(=O)C(CC(=O)Nc3ccccc3Cl)S2)c1 (stereo not drawn)
inactive: M14 > 100 µM | 786-0 > 100 µM | SF-539 > 100 µM | SF-295 > 100 µM | UACC-257 > 100 µM | SK-MEL-28 > 100 µM | SW-620 > 100 µM | OVCAR-4 > 100 µM | CAKI-1 > 100 µM | SK-MEL-2 > 100 µM | HCC 2998 > 100 µM | SK-MEL-5 > 100 µM | OVCAR-5 > 100 µM | SNB-19 > 100 µM | NCI-H226 > 100 µM | CCRF-CEM > 100 µM | OVCAR-8 > 100 µM

Cc1ccccc1NC(=O)CC(=O)NNCC(=O)Nc1nnc(-c2ccccc2)s1
inactive: M14 57.1 µM | 786-0 31.9 µM | SF-539 > 100 µM | SF-295 > 100 µM | UACC-257 > 100 µM | SK-MEL-28 > 100 µM | SW-620 87.7 µM | OVCAR-4 18 µM | U-251 50 µM | CAKI-1 > 100 µM | SK-MEL-2 > 100 µM | HCC 2998 > 100 µM | SK-MEL-5 51.1 µM | KM12 > 100 µM | OVCAR-5 > 100 µM | SNB-19 79.1 µM | NCI-H226 26.5 µM | OVCAR-8 54.2 µM

CCOC(=O)C1=C(Nc2cccc3ccccc23)OC/C1=N\NC(=O)c1ccccc1O
inactive: M14 21.9 µM | 786-0 21 µM | SF-539 10.6 µM | SF-295 22.8 µM | UACC-257 22.9 µM | SK-MEL-28 22.3 µM | SW-620 18.8 µM | OVCAR-4 9.68 µM | U-251 23.7 µM | CAKI-1 7.28 µM | SK-MEL-2 29.8 µM | HCC 2998 54.1 µM | SK-MEL-5 12.9 µM | KM12 25.3 µM | OVCAR-5 20.6 µM | SNB-19 22.1 µM | NCI-H226 22.3 µM | CCRF-CEM 4.86 µM | OVCAR-8 17 µM

Cn1cnc([N+](=O)[O-])c1Sc1ccccn1
inactive: M14 > 100 µM | 786-0 > 100 µM | SF-539 > 100 µM | SF-295 > 100 µM | UACC-257 > 100 µM | SK-MEL-28 > 100 µM | SW-620 > 100 µM | OVCAR-4 > 100 µM | U-251 > 100 µM | CAKI-1 > 100 µM | SK-MEL-2 74.6 µM | HCC 2998 > 100 µM | SK-MEL-5 > 100 µM | KM12 > 100 µM | OVCAR-5 > 100 µM | SNB-19 > 100 µM | NCI-H226 > 100 µM | CCRF-CEM 48.9 µM | OVCAR-8 > 100 µM
